System: UPR pathway in CHO-K1 cell line expressing Ire1-1642G and Fv2E-PERK
Experiment: Drug-inducible UPR pathway activation, RT-qPCR of UPR gene mRNA transcripts
Assay type: cell-based, Chinese hamster
Details: CHO-K1 transfected with Ire1-1642G and Fv2E-PERK in combination; 1NM-PP1 0, 10 or 50 μM added 24 hours post-transfection
Procedure: In FIG. 12A drug-inducible activation of UPR pathway promotes ER expansion signaling pathways in a dosage-dependent manner. […] At 24 hours post-transfection, cells were treated with varying concentrations of 1NM-PP1 (0, 10, or 50 μM). mRNA transcripts of UPR genes were measured by RT-qPCR of unspliced Xbp1 (Xbp1u), spliced Xbp1 (Xbp1s), Chop, Gadd34, and Atf4. […]
Reverse transcription real-time quantitative polymerase chain reaction (RT-qPCR). […] Quantification was by standard ddCt method.
1NM-PP1 drug induction in CHO cells: Stable CHO cell lines expressing Ire1a 1642G or Fv2E-PERK alone or in combination were induced with 10 or 50 µM of 1NM-PP1. Gene expression measured by RT-qPCR was performed at 24h post-drug induction.
A drug inducible UPR activation pathway was constructed in a CHO-K1 cell line transfected with plasmid containing constitutive promoter expressing Ire1-1642G or Fv2E-PERK alone or in combination. At 24 hours post-transfection, cells were treated with varying concentrations of 1NM-PP1 (0, 10 or 50 μM). mRNA transcripts of UPR genes were measured by RT-qPCR of unspliced Xbp1 (Xbp1u), spliced Xbp1 (Xbp1s), Chop, Gadd34, and Atf4.

## CC(C)(C)n1nc(Cc2cccc3ccccc23)c2c(N)ncnc21 [1NM-PP1]
  mRNA transcripts of UPR genes Xbp1u, CHOP, Gadd34 and Atf4 (RT-qPCR): increased at higher concentrations
